From US20040023972A1, “Use of substituted imidazo[1,2-a]-pyridin-, -pyrimidin-and-pyrazin-3-yl-amine derivatives in the preparation of medicaments for inhibiting NOS” (Gruenenthal GmbH, priority 2000, published 2004) come the findings set out here.

The target in the assay is T1, NO synthase (Rattus norvegicus, UniProt P29476).
T1 construct: the supernatant was then removed by decantation and frozen in portions at −80° C; from tissue; host or cells: rat cerebellum, 20,000 g supernatant of homogenate
Briefly: HTS-NOS assay (NOS assay): conversion of radioactive arginine, cation-exchanger filter plate. In kind it is biochemical. The following applies: for inhibition at 10 µM: read-out: HTS-NOS assay: % inhibition (10 μM); for NOS assay % inhibition: Table 5, concentration not given. Summed up:
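Rat cerebellum supernatant as NOS source, incubated with radiolabelled arginine plus cofactors including NADPH at 25 °C for 5-60 min depending on enzyme activity. Unconverted arginine was trapped on a cation-exchange filter plate, citrulline washed out, and bound arginine counted by scintillation; % inhibition versus no-compound reactions.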

By inhibition is commonly meant the drop in the measured response relative to a control, in per cent. Consider `CC(=O)N(c1c(-c2ccc(C3OCCO3)o2)nc2cc(C)ccn12)C(C)(C)C` [Example 214, N-tert-butyl-N-[2-(5-[1,3]dioxolan-2-yl-furan-2-yl)-7-methyl-imidazo[1,2-a]-pyridin-3-yl]-acetamide], for which the inhibition at 10 µM was determined as 56%. For `Cc1ccn2c(NC(C)(C)CC(C)(C)C)c(-c3cccnc3)nc2n1` [Example 126, (7-Methyl-2-pyridin-3-yl-imidazo[1,2-a]-pyrimidin-3-yl)-(1,1,3,3-tetramethyl-butyl)-amine], the inhibition at 10 µM amounted to 50%. For the compound `CC(=O)N(c1c(-c2cccnc2)nc2cc(C)ccn12)C1CCCCC1` [Example 187, N-cyclohexyl-N-(7-methyl-2-pyridin-3-yl-imidazo[1,2-a]pyridin-3-yl)-acetamide], the inhibition at 10 µM was found to be 67%.

In the case of `CC(=O)N(c1c(-c2cc(C)c(C)o2)nc2ccccn12)C(C)(C)CC(C)(C)C` [Example 202, N-[2-(4,5-dimethyl-furan-2-yl)-imidazo[1,2-a]pyridin-3-yl]-N-(1,1,3,3-tetramethyl-butyl)-acetamide], the inhibition at 10 µM is 57%. For the compound `CC(=O)N(c1c(-c2cc3ccccc3c3ccccc23)nc2cc(C)ccn12)C(C)(C)C` [Example 208, N-tert-butyl-N-(7-methyl-2-phenanthren-9-yl-imidazo[1,2-a]pyridin-3-yl)-acetamide], the inhibition at 10 µM is 63%.

Consider `Cc1ccn2c(NC(C)(C)CC(C)(C)C)c(-c3ccc(Cl)cc3Cl)nc2c1` [Example 85, [2-(2,4-Dichlorophenyl)-7-methyl-imidazo[1,2-a]pyridin-3-yl]-(1,1,3,3-tetramethyl-butyl)-amine], for which the inhibition at 10 µM is 61%.

With `CCc1ccn2c(NCc3ccccc3Cl)c(-c3ccco3)nc2c1` [Example 316, (2-Chloro-benzyl)-(7-ethyl-2-furan-2-yl-imidazo[1,2-a]pyridin-3-yl)-amine], the inhibition at 10 µM turned out to be 52%. Regarding `Cc1ccn2c(NC(C)(C)CC(C)(C)C)c(-c3ccc(Br)o3)nc2c1` [Example 86, [2-(5-Bromofuran-2-yl)-7-methyl-imidazo[1,2-a]pyridin-3-yl]-(1,1,3,3-tetramethyl-butyl)-amine], the inhibition at 10 µM was 54%. For `COc1ccccc1-c1nc2c(C)cccn2c1NC1CCCCC1` [Example 82, Cyclohexyl-[2-(2-methoxy-phenyl)-8-methyl-imidazo[1,2-a]pyridin-3-yl]-amine], the inhibition at 10 µM came out at 62%. Consider `COc1cccc(-c2nc3cc(C)ccn3c2Nc2c(C)cccc2C)c1OC` [Example 39, [2-(2,3-Dimethoxy-phenyl)-7-methyl-imidazo[1,2-a]pyridin-3-yl]-(2,6-dimethyl-phenyl)-amine], for which the inhibition at 10 µM was 58%. For `Cc1cc(C)n2c(NC(C)(C)CC(C)(C)C)c(-c3ccoc3)nc2c1.Cl` [Example 308, (2-Furan-3-yl-5,7-dimethyl-imidazo[1,2-a]-pyridin-3-yl)-(1,1,3,3-tetramethyl-butyl)-amine hydrochloride], the “NOS assay % inhibition” value is 50%. For `CC(=O)N(c1c(-c2ccco2)nc2cc(C)cc(C)n12)C(C)(C)C` [Example 145, N-tert-butyl-N-(2-furan-2-yl-5,7-dimethyl-imidazo[1,2-a]pyridin-3-yl)-acetamide], the inhibition at 10 µM amounted to 66%. Take `CC(=O)N(c1c(-c2cccnc2)nc2cc(C)ccn12)C(C)(C)CC(C)(C)C` [Example 168, N-(7-methyl-2-pyridin-3-yl-imidazo[1,2-a]pyridin-3-yl)-N-(1,1,3,3-tetramethylbutyl)-acetamide]: the inhibition at 10 µM was found to be 56%. With `Cc1cc(C)n2c(NC(C)(C)CC(C)(C)C)c(-c3ccsc3)nc2c1.Cl` [Example 312, (5,7-Dimethyl-2-thiophen-3-yl-imidazo[1,2-a]-pyridin-3-yl)-(1,1,3,3-tetramethyl-butyl)-amine hydrochloride], the “NOS assay % inhibition” value is reported as 74%. Regarding `CC(=O)N(c1c(-c2ccc(C(=O)O)o2)nc2nc(C)ccn12)C(C)(C)CC(C)(C)C` [Example 248, 5-{3-[acetyl-(1,1,3,3-tetramethyl-butyl)-amino]-7-methyl-imidazo[1,2-a]-pyrimidin-2-yl}-furan-2-carboxylic acid], the inhibition at 10 µM was 52%. `Cc1cc(C)n2c(NC3CCCCC3)c(-c3ccco3)nc2c1` [Example 26, Cyclohexyl-(2-furan-2-yl-5,7-dimethyl-imidazo[1,2-a]pyridin-3-yl)-amine]: the inhibition at 10 µM was found to be 62%. Take `Cc1cccn2c(NC3CCCCC3)c(-c3ccncc3)nc12` [Example 111, Cyclohexyl-(8-methyl-2-pyridin-4-yl-imidazo[1,2-a]pyridin-3-yl)-amine]: the inhibition at 10 µM amounted to 52%. Take `CC(=O)OCc1ccc(-c2nc3cc(C)cc(C)n3c2N(C(C)=O)c2c(C)cccc2C)o1` [Example 243, acetic acid 5-{3-[acetyl-(2,6-dimethyl-phenyl)-amino]-5,7-dimethyl-imidazo[1,2-a]pyridin-2-y}-furan-2-yl methyl ester]: the “HTS-NOS assay: % inhibition (10 μM)” value is given as 62%.

On to `Cc1ccc(-c2nc3cc(C)cc(C)n3c2NC(C)(C)CC(C)(C)C)cc1` [Example 95, (5,7-Dimethyl-2-p-tolyl-imidazo[1,2-a]-pyridin-3-yl)-(1,1,3,3-tetramethyl-butyl)-amine], for which the inhibition at 10 µM came to 70%. For the compound `CC(=O)N(c1c(C2CCCCC2)nc2cc(C)cc(C)n12)C(C)(C)CC(C)(C)C` [Example 219, N-(2-cyclohexyl-5,7-dimethyl-imidazo[1,2-a]pyridin-3-yl)-N-(1,1,3,3-tetramethyl-butyl)-acetamide], the inhibition at 10 µM came to 62%. With `COc1ccccc1-c1nc2cc(C)cc(C)n2c1NC(C)(C)CC(C)(C)C` [Example 53, [2-(2-Methoxy-phenyl)-5,7-dimethyl-imidazo[1,2-a]pyridin-3-yl]-(1,1,3,3-tetramethyl-butyl)-amine], the inhibition at 10 µM was 61%. `C#[N+]CCCCCCNc1c(-c2cccc3ccccc23)nc2cc(C)ccn12` [Example 122, Methylidyne-[6-(7-methyl-2-naphthalen-1-yl-imidazo[1,2-a]pyridin-3-ylamino)-hexyl]-ammonium]: the “HTS-NOS assay: % inhibition (10 μM)” value was found to be 53%. As for `Cc1cc(C)n2c(NC3CCCC3)c(-c3ccc(Br)cc3F)nc2c1.Cl` [Example 304, [2-(4-Bromo-2-fluoro-phenyl)-5,7-dimethyl-imidazo[1,2-a]pyridin-3-yl]-cyclopentyl-amine hydrochloride], the “NOS assay % inhibition” value worked out at 56%. Turning to `C#[N+]CCCCCCNc1c(-c2ccco2)nc2cc(C)cc(C)n12` [Example 45, [6-(2-Furan-2-yl-5,7-dimethyl-imidazo[1,2-a]pyridin-3-ylamino)-hexyl]-methylidyne-ammonium], the “HTS-NOS assay: % inhibition (10 μM)” value was 54%. The same measure, in the same setting: the result for `[C-]#[N+]CCCCCCNc1c(-c2ccc(C)cc2)nc2cc(C)ccn12` [Example 50, Methylidyne-[6-(7-methyl-2-p-tolyl-imidazo[1,2-a]pyridin-3-ylamino)-hexyl]-ammonium] reads 78%.

`COc1cc(-c2nc3c(C)cc(Br)cn3c2N(C(C)=O)c2c(C)cccc2C)ccc1OC(C)=O` [Example 213, acetic acid 4-{3-[acetyl-(2,6-dimethyl-phenyl)-amino]-6-bromo-8-methyl-imidazo[1,2-a]pyridin-2-yl}-2-methoxy-phenyl ester]: the inhibition at 10 µM turned out to be 69%. On the same count and under the same terms, for `Cc1ccn2c(NC(C)(C)C)c(-c3ccc(CO)o3)nc2c1` [Example 64, [5-(3-Tert-butylamino-7-methyl-imidazo[1,2-a]pyridin-2-yl)-furan-2-yl]-methanol] the value was 52%; for `CCCCN(C(C)=O)c1c(-c2ccc(F)cc2Cl)nc2ccccn12` [Example 246, N-butyl-N-[2-(2-chloro-4-fluoro-phenyl)-imidazo[1,2-a]pyridin-3-yl]-acetamide], 55%. Consider `COc1ccccc1-c1nc2cc(C)ccn2c1N(C(C)=O)c1c(C)cccc1C` [Example 184, N-(2,6-dimethyl-phenyl)-N-[2-(2-methoxy-phenyl)-7-methyl-imidazo[1,2-a]-pyridin-3-yl]-acetamide], for which the inhibition at 10 µM is 51%. As to `Cc1ccn2c(NC3CCCCC3)c(-c3ccco3)nc2c1` [Example 141, Cyclohexyl-(2-furan-2-yl-7-methyl-imidazo[1,2-a]pyridin-3-yl)-amine], the inhibition at 10 µM was 64%. With `Cc1cc(C)n2c(NC(C)(C)C)c(-c3ccc(C(=O)O)o3)nc2c1` [Example 67, 5-(3-Tert-butylamino-5,7-dimethyl-imidazo[1,2-a]pyridin-2-yl)-furan-2-carboxylic acid], the inhibition at 10 µM was 56%. For the compound `COc1ccc(-c2nc3cc(C)ccn3c2Nc2c(C)cccc2C)cc1OC` [Example 54, [2-(3,4-Dimethoxy-phenyl)-7-methyl-imidazo[1,2-a]pyridin-3-yl]-(2,6-dimethyl-phenyl)-amine], the inhibition at 10 µM amounted to 64%. Take `COc1cccc(-c2nc3cc(C)cc(C)n3c2NC(C)(C)C)c1OC` [Example 5, Tert-butyl-[2-(2,3-dimethoxy-phenyl)-5,7-dimethyl-imidazo[1,2-a]pyridin-3-yl]-amine]: the inhibition at 10 µM came to 61%. As for `Cc1ccc(-c2nc3c(C)cccn3c2NC(C)(C)CC(C)(C)C)cc1` [Example 133, (8-Methyl-2-p-tolyl-imidazo[1,2-a]pyridin-3-yl)-(1,1,3,3-tetramethyl-butyl)-amine], the inhibition at 10 µM turned out to be 52%. The same measure, in the same setting: the result for `CCc1ccn2c(Nc3ccc(F)c(Cl)c3)c(-c3ccc(C)o3)nc2c1` [Example 317, (3-Chloro-4-fluoro-phenyl)-[7-ethyl-2-(5-methyl-furan-2-yl)-imidazo[1,2-a]pyridin-3-yl]-amine] reads 59%. Turning to `CC(=O)OCc1ccc(-c2nc3cccc(C)n3c2N(C(C)=O)C2CCCCC2)o1` [Example 260, acetic acid 5-[3-(acetyl-cyclohexyl-amino)-5-methyl-imidazo[1,2-a]pyridin-2-yl]-furan-2-yl methyl ester], the “HTS-NOS assay: % inhibition (10 μM)” value was found to be 51%.
